From patent US12168008B2, “Oxabicycloheptanes for modulation of immune response” (LIXTE BIOTECHNOLOGY, INC., priority 2016, dated 2024)
Read-outs that look alike come from different tables or passages of the source.

Tests used:
[1] = system: CD4+ T cells; experiment: Human mixed lymphocyte reaction (Example 13); format: cell-based
Protocol: FIG. 39A. DCs were induced from purified monocytes by culturing in IL4 and GM-CSF for 7 days. 10^5 purified CFSE labelled CD4+ T cells were then co-cultured with 10^4 allogenic DCs in the presence of a titration of LB-100 in duplicates or triplicates for 5 days. LB-100 was replenished on day 3. Supernatants were collected on day 5 and measured for IFN-γ production. FACS analysis was performed on the cultured cells.
In vitro activity of LB-100 in human mixed lymphocytes reactions: To further confirm the immune-modulating effect of LB-100 has clinical utility, mixed lymphocyte reactions (MLRs) were performed using PBMC from healthy human donors. Monocyte derived dendritic cells were co-cultured with allogenic CD4+ T cells labelled with cytosolic dye CFSE. LB-100 was given on the day of co-culture (Day 0) and again on Day 3. Proliferation and IFN-γ secretion by CD4 T cells were assessed on Day 5 (FIG. 39A). There was a significant increase in CD4 T cell proliferation, as measured by the percentage of dividing cells, with LB-100 treatment at 1 μM (31% compared to 20% in controls) (FIG. 39B). There was also a trend towards increased proliferation at lower LB100 concentrations (in the sub-micromolar range). […] Also examined was the effect of lineage differentiation in CD4 T cells by labeling for T-bet. […] Next tested whether LB-100 could enhance IFN-γ secretion in vitro in combination with PD1 blockade using Nivolumab. A similar MLR assay was performed with LB-100.
Human mixed lymphocyte reaction—as previously described in 39. Dendritic cells (DCs) were generated by culturing monocytes isolated from PBMC using a monocyte isolation kit (StemCell) in vitro for 7 days with 500U/ml interleukin-4 (IL-4) and 250 U/ml GM-CSF (R&D Systems). CD4+ T cells (1×10^5) isolated with CD4 isolation kit (StemCell) and labeled with CFSE (ThermoFisher) were co-cultured with allogeneic DCs (1×10^4). At the initiation of assay, a titration of LB-100 and/or Nivolumab was added. After 3 days, LB-100 was replenished to the final indicated concentration. After 5 days, culture supernatants were analyzed by ELISA (eBioscience) and cells were analyzed by flow cytometry. At least 3 separate donors were obtained and results of one representative donor were reported.

[2] = format: in vivo, human; settings: for dose limiting toxicity (reversible increases in serum creatinine or calculated serum creatinine clearance): 3.1 mg/m2
Protocol: Experimental Design: LB-100 was administered intravenously daily for 3 days in 21-day cycles in a 3+3 dose-escalation design. The primary goal was to determine the maximum tolerated dose and recommended phase 2 dose (ClinicalTrials.gov: NCT01837667).
Eligible patients were aged 18 years or older with proven progressive solid tumors who had failed standard treatments. Patients had to have a life expectancy of at least 12 weeks, an ECOG performance status of 0 or 1, and be able to give informed consent. […] They must not have any other uncontrolled systemic disease. Women of childbearing potential had to have a negative serum or urine pregnancy test result.
An open-label, dose-escalation, phase I study was performed to assess the safety, tolerability, and activity of LB-100 administered for 3 consecutive days every 3 weeks. Pharmacokinetic studies were planned at the maximum tolerable dose (MTD). The starting dose, 0.25 mg/m^2, 1/15th of the highest non-severely toxic dose in dogs, and plan of dose escalation was specified by the FDA. The study was approved by the human investigations committee at each study center and is registered at clinicaltrials.gov: NCT01837667.
LB-100 was supplied as a single use solution. Initially, LB-100 was administered in 50 mL of saline over 15 minutes. […] Dose escalation was prohibited within any cohort. Patients were eligible to receive up to 6 cycles of study therapy, unless unacceptable toxicity, disease progression, or inter-current illness required discontinuation. More than 6 cycles were allowed in the absence of progression and toxicity. Because of cardiac and renal toxicity at high doses in animal toxicology studies, patients had extensive monitoring including ECG, MUGA or echocardiogram, cardiac troponins, and BNP prior to every cycle. Blood chemistries, urinalysis, hematologic profile and vital signs were monitored prior to and on day 1, 3, 8, 15, and 22 of each cycle. Laboratory parameters were tabulated by maximum NCI-CTCAE (Version 4.0) severity grade. A safety review committee assessed all clinical data every 2 weeks and approved dose escalation between cohorts.
Doses of LB-100 were escalated in groups of three patients. […] When a potential DLT occurred, three new patients were entered at that dose. If another DLT occurred, three additional patients were treated at the previous non-DLT dose to determine the safety of that level for phase 2 trials.
Response to treatment was assessed using RECIST version 1.1. All patients with measurable disease, who completed 2 cycles of LB-100 and had at least 1 post-baseline tumor assessment, were evaluable for efficacy. Patients receiving any LB-100 were evaluable for safety. The severity of adverse events and laboratory abnormalities is reported according to NCI-CTCAE version 4.0 and coded using Medical Dictionary for Regulatory Activities.

CN1CCN(C(=O)C2C(C(=O)O)[C@H]3CC[C@@H]2O3)CC1 (stereo partly shown) [LB-100]
enhancement of IFN-γ release ([1]; 0.2 μM): 3.5 fold | T-bet expression in CD4 T cells ([1]; 1 μM): significantly increased | enhancement of IFN-γ release ([1]; 1 μM): 4 fold | CD4 T cell proliferation, percentage of dividing cells ([1]; 1 μM, day 5, controls 20%): 31% | CD4 T cell proliferation ([1]; 5 μM): impaired | DLT during the first 6 dose levels ([2]; 0.25-2.33 mg/m^2): no DLT | HEADACHE, patients n (%) ([2]; Grade 1-2): 3 (10.3%) | HEADACHE, patients n (%) ([2]; Grade 3): 0 | HEADACHE, patients n (%) ([2]; Grade 4): 0 | ABDOMINAL DISCOMFORT, patients n (%) ([2]; Grade 5): 0 | ABDOMINAL DISTENSION, patients n (%) ([2]; Grade 5): 0 | ACCELERATED HYPERTENSION, patients n (%) ([2]; Grade 5): 0 | ALANINE AMINOTRANSFERASE INCREASED, patients n (%) ([2]; Grade 5): 0 | ANAEMIA, patients n (%) ([2]; Grade 5): 0 | ARTHRALGIA, patients n (%) ([2]; Grade 5): 0 | BLOOD ALKALINE PHOSPHATASE INCREASED, patients n (%) ([2]; Grade 5): 0 | BLOOD UREA INCREASED, patients n (%) ([2]; Grade 5): 0 | CANDIDIASIS, patients n (%) ([2]; Grade 5): 0 | CHEST PAIN, patients n (%) ([2]; Grade 5): 0 | CHILLS, patients n (%) ([2]; Grade 5): 0 | CONSTIPATION, patients n (%) ([2]; Grade 5): 0 | DECREASED APPETITE, patients n (%) ([2]; Grade 5): 0 | DERMATITIS ACNEIFORM, patients n (%) ([2]; Grade 5): 0 | DIARRHOEA, patients n (%) ([2]; Grade 5): 0 | DIZZINESS, patients n (%) ([2]; Grade 5): 0 | EJECTION FRACTION DECREASED, patients n (%) ([2]; Grade 5): 0 | ELECTROCARDIOGRAM QT PROLONGED, patients n (%) ([2]; Grade 5): 0 | GAIT DISTURBANCE, patients n (%) ([2]; Grade 5): 0 | GASTROINTESTINAL DISORDER, patients n (%) ([2]; Grade 5): 0 | GENERALISED OEDEMA, patients n (%) ([2]; Grade 5): 0 | GINGIVAL PAIN, patients n (%) ([2]; Grade 5): 0 | HEADACHE, patients n (%) ([2]; Grade 5): 0 | HYPERCALCAEMIA, patients n (%) ([2]; Grade 5): 0 | HYPERKALAEMIA, patients n (%) ([2]; Grade 5): 0 | HYPERNATRAEMIA, patients n (%) ([2]; Grade 5): 0 | HYPERTENSION, patients n (%) ([2]; Grade 5): 0 | HYPOAESTHESIA, patients n (%) ([2]; Grade 5): 0 | HYPOALBUMINAEMLA, patients n (%) ([2]; Grade 5): 0 | HYPOKINESIA, patients n (%) ([2]; Grade 5): 0 | HYPOTENSION, patients n (%) ([2]; Grade 5): 0 | HYPOXIA, patients n (%) ([2]; Grade 5): 0 | INSOMNIA, patients n (%) ([2]; Grade 5): 0 | MUCOSAL INFLAMMATION, patients n (%) ([2]; Grade 5): 0 | MUSCLE TWITCHING, patients n (%) ([2]; Grade 5): 0 | MUSCULAR WEAKNESS, patients n (%) ([2]; Grade 5): 0 | NAUSEA, patients n (%) ([2]; Grade 5): 0 | NEUROPATHY PERIPHERAL, patients n (%) ([2]; Grade 5): 0 | NEUTROPENIA, patients n (%) ([2]; Grade 5): 0 | OEDEMA PERIPHERAL, patients n (%) ([2]; Grade 5): 0 | OEDEMA, patients n (%) ([2]; Grade 5): 0 | PAIN OF SKIN, patients n (%) ([2]; Grade 5): 0 | PERIPHERAL COLDNESS, patients n (%) ([2]; Grade 5): 0 | PERIPHERAL SENSORY NEUROPATHY, patients n (%) ([2]; Grade 5): 0 | PLATELET COUNT DECREASED, patients n (%) ([2]; Grade 5): 0 | PLEURAL EFFUSION, patients n (%) ([2]; Grade 5): 0 | PROTEINURIA, patients n (%) ([2]; Grade 5): 0 | PYREXIA, patients n (%) ([2]; Grade 5): 0 | SINUS TACHYCARDIA, patients n (%) ([2]; Grade 5): 0 | recommended phase 2 dose ([2]; daily for 3 days every 3 weeks, i.v.): 2.33 mg/m2 | Probable or possible study drug related Grade 3 adverse events ([2]; human, in vivo): 6 (20.7%) patients (%) | dose limiting toxicity (reversible increases in serum creatinine or calculated serum creatinine clearance) ([2]; human, in vivo): 2/4 | symptomatic toxicity ([2]; in vivo): no symptomatic toxicity other than reversible mild to moderate fatigue | toxicities suggestive of autoimmune activity ([2]; in vivo): no patient experienced toxicities suggestive of autoimmune activity | dose limiting toxicity (reversible increases in serum creatinine or calculated serum creatinine clearance) ([2]; in vivo): Two
